{
  "source": "paper PMC10041525",
  "about": "“New Dual Inhibitors of Bacterial Topoisomerases with Broad-Spectrum Antibacterial Activity and In Vivo Efficacy against Vancomycin-Intermediate Staphylococcus aureus” (Journal of Medicinal Chemistry, 2023)",
  "tested_on": "100 A. baumannii strains (50 MDR, 50 non-MDR)",
  "assay": "MIC broth microdilution at IHMA Europe, panel of 100 strains",
  "assay_type": "cell-based",
  "conditions": "Acinetobacter baumannii, read-out: MIC",
  "note": "Read-outs that look alike come from different tables or passages of the source.",
  "data": [
    {"smiles": "C[C@@H](O)[C@H]1C(=O)N2C(C(=O)O)=C(SCCNC=N)C[C@H]12", "note": "[Imipenem, imipenem]", "values": [
      {"measurement": "MIC", "setting": "A. baumannii IHMA 1769393, Lithuania 2018, Non-MDR", "result": "≤ 0.25", "unit": "mg/L"},
      {"measurement": "MIC", "setting": "A. baumannii IHMA 1769782, Israel 2018, MDR", "result": "> 16", "unit": "mg/L"},
      {"measurement": "MIC", "setting": "A. baumannii IHMA 1769910, Israel 2018, Non-MDR", "result": "≤ 0.25", "unit": "mg/L"},
      {"measurement": "MIC", "setting": "A. baumannii IHMA 1790317, Czech Republic 2018, Non-MDR", "result": "≤ 0.25", "unit": "mg/L"},
      {"measurement": "MIC", "setting": "A. baumannii IHMA 1790916, Romania 2018, Non-MDR", "result": "≤ 0.25", "unit": "mg/L"},
      {"measurement": "MIC", "setting": "A. baumannii IHMA 1791877, Israel 2018, MDR", "result": "> 16", "unit": "mg/L"},
      {"measurement": "MIC", "setting": "A. baumannii IHMA 1792961, Jordan 2018, MDR", "result": "> 16", "unit": "mg/L"},
      {"measurement": "MIC", "setting": "A. baumannii IHMA 1795669, Tunisia 2018, Non-MDR", "result": 0.5, "unit": "mg/L"},
      {"measurement": "MIC", "setting": "A. baumannii IHMA 1814276, Lebanon 2018, MDR", "result": "> 16", "unit": "mg/L"},
      {"measurement": "MIC", "setting": "A. baumannii IHMA 1815198, Kuwait 2018, MDR", "result": "> 16", "unit": "mg/L"},
      {"measurement": "MIC", "setting": "A. baumannii IHMA 1815856, Israel 2018, MDR", "result": "> 16", "unit": "mg/L"},
      {"measurement": "MIC", "setting": "A. baumannii IHMA 1821468, South Africa 2018, Non-MDR", "result": 0.5, "unit": "mg/L"},
      {"measurement": "MIC", "setting": "A. baumannii IHMA 1829500, Georgia 2018, Non-MDR", "result": "≤ 0.25", "unit": "mg/L"},
      {"measurement": "MIC", "setting": "A. baumannii IHMA 1830924, United Kingdom 2018, Non-MDR", "result": "≤ 0.25", "unit": "mg/L"},
      {"measurement": "MIC", "setting": "A. baumannii IHMA 1849819, Kuwait 2018, MDR", "result": "> 16", "unit": "mg/L"},
      {"measurement": "MIC", "setting": "A. baumannii IHMA 1849829, Kuwait 2018, Non-MDR", "result": "≤ 0.25", "unit": "mg/L"},
      {"measurement": "MIC", "setting": "A. baumannii IHMA 1857118, Slovenia 2018, Non-MDR", "result": "≤ 0.25", "unit": "mg/L"},
      {"measurement": "MIC", "setting": "A. baumannii IHMA 1863631, France 2018, Non-MDR", "result": "≤ 0.25", "unit": "mg/L"},
      {"measurement": "MIC", "setting": "A. baumannii IHMA 1870054, United States 2018, Non-MDR", "result": "≤ 0.25", "unit": "mg/L"},
      {"measurement": "MIC", "setting": "A. baumannii IHMA 1884428, Italy 2018, Non-MDR", "result": "≤ 0.25", "unit": "mg/L"},
      {"measurement": "MIC", "setting": "A. baumannii IHMA 1884990, Germany 2018, Non-MDR", "result": "≤ 0.25", "unit": "mg/L"},
      {"measurement": "MIC", "setting": "A. baumannii IHMA 1900538, Turkey 2018, Non-MDR", "result": "≤ 0.25", "unit": "mg/L"},
      {"measurement": "MIC", "setting": "A. baumannii IHMA 1913773, Kenya 2018, Non-MDR", "result": "≤ 0.25", "unit": "mg/L"},
      {"measurement": "MIC", "setting": "A. baumannii IHMA 1926285, Qatar 2018, Non-MDR", "result": "≤ 0.25", "unit": "mg/L"},
      {"measurement": "MIC", "setting": "A. baumannii IHMA 1926288, Qatar 2018, MDR", "result": "> 16", "unit": "mg/L"},
      {"measurement": "MIC", "setting": "A. baumannii IHMA 1957343, Portugal 2019, Non-MDR", "result": "≤ 0.25", "unit": "mg/L"},
      {"measurement": "MIC", "setting": "A. baumannii IHMA 1963732, Turkey 2019, MDR", "result": "> 16", "unit": "mg/L"},
      {"measurement": "MIC", "setting": "A. baumannii IHMA 1967860, Spain 2019, Non-MDR", "result": "≤ 0.25", "unit": "mg/L"},
      {"measurement": "MIC", "setting": "A. baumannii IHMA 1971673, Latvia 2019, MDR", "result": "> 16", "unit": "mg/L"},
      {"measurement": "MIC", "setting": "A. baumannii IHMA 1975075, Israel 2019, Non-MDR", "result": "≤ 0.25", "unit": "mg/L"},
      {"measurement": "MIC", "setting": "A. baumannii IHMA 1977077, Kuwait 2019, Non-MDR", "result": "≤ 0.25", "unit": "mg/L"},
      {"measurement": "MIC", "setting": "A. baumannii IHMA 1983151, Greece 2019, MDR", "result": "> 16", "unit": "mg/L"},
      {"measurement": "MIC", "setting": "A. baumannii IHMA 1984665, Lithuania 2019, MDR", "result": "> 16", "unit": "mg/L"},
      {"measurement": "MIC", "setting": "A. baumannii IHMA 1986678, Turkey 2019, Non-MDR", "result": 0.5, "unit": "mg/L"},
      {"measurement": "MIC", "setting": "A. baumannii IHMA 1986738, Turkey 2019, MDR", "result": "> 16", "unit": "mg/L"},
      {"measurement": "MIC", "setting": "A. baumannii IHMA 1987162, Croatia 2019, MDR", "result": "> 16", "unit": "mg/L"},
      {"measurement": "MIC", "setting": "A. baumannii IHMA 1993615, Turkey 2019, MDR", "result": "> 16", "unit": "mg/L"},
      {"measurement": "MIC", "setting": "A. baumannii IHMA 1994284, Italy 2019, MDR", "result": "> 16", "unit": "mg/L"},
      {"measurement": "MIC", "setting": "A. baumannii IHMA 1995161, Czech Republic 2019, Non-MDR", "result": "≤ 0.25", "unit": "mg/L"},
      {"measurement": "MIC", "setting": "A. baumannii IHMA 1997936, Morocco 2019, Non-MDR", "result": "≤ 0.25", "unit": "mg/L"},
      {"measurement": "MIC", "setting": "A. baumannii IHMA 1999178, Belgium 2019, Non-MDR", "result": "≤ 0.25", "unit": "mg/L"},
      {"measurement": "MIC", "setting": "A. baumannii IHMA 2003279, Turkey 2019, MDR", "result": "> 16", "unit": "mg/L"},
      {"measurement": "MIC", "setting": "A. baumannii IHMA 2014367, Jordan 2019, Non-MDR", "result": "≤ 0.25", "unit": "mg/L"},
      {"measurement": "MIC", "setting": "A. baumannii IHMA 2014931, South Africa 2019, Non-MDR", "result": "≤ 0.25", "unit": "mg/L"},
      {"measurement": "MIC", "setting": "A. baumannii IHMA 2019315, Romania 2019, Non-MDR", "result": "≤ 0.25", "unit": "mg/L"},
      {"measurement": "MIC", "setting": "A. baumannii IHMA 2020360, Croatia 2019, MDR", "result": "> 16", "unit": "mg/L"},
      {"measurement": "MIC", "setting": "A. baumannii IHMA 2031511, Greece 2019, Non-MDR", "result": "≤ 0.25", "unit": "mg/L"},
      {"measurement": "MIC", "setting": "A. baumannii IHMA 2031524, Greece 2019, MDR", "result": "> 16", "unit": "mg/L"},
      {"measurement": "MIC", "setting": "A. baumannii IHMA 2034657, Tunisia 2019, Non-MDR", "result": "≤ 0.25", "unit": "mg/L"},
      {"measurement": "MIC", "setting": "A. baumannii IHMA 2035089, Serbia 2019, MDR", "result": "> 16", "unit": "mg/L"},
      {"measurement": "MIC", "setting": "A. baumannii IHMA 2035134, Serbia 2019, Non-MDR", "result": "≤ 0.25", "unit": "mg/L"},
      {"measurement": "MIC", "setting": "A. baumannii IHMA 2038976, Hungary 2019, MDR", "result": "> 16", "unit": "mg/L"},
      {"measurement": "MIC", "setting": "A. baumannii IHMA 2051503, Serbia 2019, MDR", "result": "> 16", "unit": "mg/L"},
      {"measurement": "MIC", "setting": "A. baumannii IHMA 2058329, Slovenia 2019, Non-MDR", "result": "≤ 0.25", "unit": "mg/L"},
      {"measurement": "MIC", "setting": "A. baumannii IHMA 2065587, France 2019, Non-MDR", "result": "≤ 0.25", "unit": "mg/L"},
      {"measurement": "MIC", "setting": "A. baumannii IHMA 2099294, United Kingdom 2019, Non-MDR", "result": "≤ 0.25", "unit": "mg/L"},
      {"measurement": "MIC", "setting": "A. baumannii IHMA 2129256, Qatar 2019, Non-MDR", "result": "≤ 0.25", "unit": "mg/L"},
      {"measurement": "MIC", "setting": "A. baumannii IHMA 2154584, Israel 2020, MDR", "result": 16, "unit": "mg/L"},
      {"measurement": "MIC", "setting": "A. baumannii IHMA 2155340, Kenya 2020, MDR", "result": 16, "unit": "mg/L"},
      {"measurement": "MIC", "setting": "A. baumannii IHMA 2156634, Turkey 2020, MDR", "result": "> 16", "unit": "mg/L"},
      {"measurement": "MIC", "setting": "A. baumannii IHMA 2156709, Turkey 2020, MDR", "result": "> 16", "unit": "mg/L"},
      {"measurement": "MIC", "setting": "A. baumannii IHMA 2157614, Australia 2020, Non-MDR", "result": "≤ 0.25", "unit": "mg/L"},
      {"measurement": "MIC", "setting": "A. baumannii IHMA 2177232, Lithuania 2020, MDR", "result": "> 16", "unit": "mg/L"},
      {"measurement": "MIC", "setting": "A. baumannii IHMA 2177489, Lithuania 2020, MDR", "result": "> 16", "unit": "mg/L"},
      {"measurement": "MIC", "setting": "A. baumannii IHMA 2178574, Ukraine 2020, Non-MDR", "result": "≤ 0.25", "unit": "mg/L"},
      {"measurement": "MIC", "setting": "A. baumannii IHMA 2180134, Malaysia 2020, Non-MDR", "result": "≤ 0.25", "unit": "mg/L"},
      {"measurement": "MIC", "setting": "A. baumannii IHMA 2180142, Malaysia 2020, MDR", "result": 16, "unit": "mg/L"},
      {"measurement": "MIC", "setting": "A. baumannii IHMA 2181370, Morocco 2020, MDR", "result": "> 16", "unit": "mg/L"},
      {"measurement": "MIC", "setting": "A. baumannii IHMA 2183729, Argentina 2020, MDR", "result": 16, "unit": "mg/L"},
      {"measurement": "MIC", "setting": "A. baumannii IHMA 2183849, Argentina 2020, Non-MDR", "result": "≤ 0.25", "unit": "mg/L"},
      {"measurement": "MIC", "setting": "A. baumannii IHMA 2184382, Japan 2020, Non-MDR", "result": "≤ 0.25", "unit": "mg/L"}
    ]}
  ]
}
